Laboratory results from ChEMBL document CHEMBL2069209, “Identification of selective tubulin inhibitors as potential anti-trypanosomal agents” (Bioorg Med Chem Lett, 2012).

Key:
Trypanosoma brucei = assay: Antitrypanosomal activity against bloodstream form of Trypanosoma brucei 427 after 48 hrs by MTS assay; assay type: functional, organism-based; conditions: Trypanosoma brucei, 427, 48 h
[1] = Selectivity ratio of IC50 for human SKBR3 cells to IC50 for bloodstream form of Trypanosoma brucei 427; assay type: ADME, cell-based, SK-BR-3; conditions: read-out: Ratio IC50
SK-BR-3 = assay: Growth inhibition of human SKBR3 cells after 48 hrs by MTT assay; assay type: cell-based; conditions: SK-BR-3, 48 h

Row | IC50 (Trypanosoma brucei) | SMILES | selectivity ratio [1] | IC50 (SK-BR-3)
1 | 3.22 µM | Cc1ccc(C)c(COc2cc(NC(=O)c3ccc4c(c3)OCO4)ccc2N(C)S(C)(=O)=O)c1 | 0.1 | 
2 | 6.85 µM | COc1ccc(CC(=O)Nc2ccc(N(C)S(C)(=O)=O)c(OCc3cc(C)ccc3C)c2)cc1OC | 5 | 
3 | 51.3 µM | Cc1ccc(C)c(COc2cc(NC(=O)Cc3ccccc3)ccc2N(C)S(C)(=O)=O)c1 | 2.3 | 
4 | 2.3 µM | CN(c1ccc(NC(=O)c2ccc(Cl)c([N+](=O)[O-])c2)cc1OCc1ccccc1)S(C)(=O)=O | 4 | 
5 | 6.44 µM | Cc1ccc(C)c(COc2cc(NC(=O)c3ccccc3)ccc2N(C)S(C)(=O)=O)c1 | 0.6 | 

The next lines start with the compound.

Row | SMILES | IC50 (Trypanosoma brucei) | selectivity ratio [1] | IC50 (SK-BR-3)
6 | CN(c1ccc(NC(=O)c2ccc(C#N)cc2)cc1OCc1ccccc1)S(C)(=O)=O | 2.8 µM | 6 | 
7 | COc1ccc(S(=O)(=O)Nc2cccnc2Nc2ccc(O)cc2)cc1 [ABT-751] | 82.1 µM |  | 0.74 µM
8 | O=C(Nc1ccncc1)C(=O)c1cn(Cc2ccc(Cl)cc2)c2ccccc12 [INDIBULIN] | 114 µM |  | 0.033 µM
9 | COC(=O)Nc1nc2cc(C(=O)c3cccs3)ccc2[nH]1 [NOCODAZOLE] | 44.2 µM |  | 0.084 µM
10 | CC(=O)O[C@H]1C(=O)[C@@]2(C)[C@H]([C@H](OC(=O)c3ccccc3)[C@]3(O)C[C@H](OC(=O)[C@H](O)[C@@H](NC(=O)c4ccccc4)c4ccccc4)C(C)=C1C3(C)C)[C@]1(OC(C)=O)CO[C@@H]1C[C@@H]2O [PACLITAXEL] | 0.0046 µM |  | 
11 | CC[C@]1(O)C[C@@H]2CN(CCc3c([nH]c4ccccc34)[C@@](C(=O)OC)(c3cc4c(cc3OC)N(C)[C@H]3[C@@](O)(C(=O)OC)[C@H](OC(C)=O)[C@]5(CC)C=CCN6CC[C@]43[C@@H]65)C2)C1 [VINBLASTINE] | 0.41 µM |  | 0.00091 µM
